# Experimental data: the supplement of paper PMC10307832
# What was measured:
# Experiment in all cases: relative viability (nuclei count vs DMSO), 5 days (fraction); higher = more cells survive
# [1] = compound: C1CNCCC1C2=CC(=NN2)C3=CC=NC=C3 + CCNC(=O)c1noc(-c2cc(C(C)C)c(O)cc2O)c1-c1ccc(CN2CCOCC2)cc1 [Luminespib] (partner 0.01 µM)
# Outline: (§1)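 Lung cancer cell lines in 1536-well plates got either a single drug or a fixed anchor-drug dose together with five library-drug doses (not always all listed) in √10 steps, by pin tool, on the day after seeding. Nuclei were counted after 5 days, and relative viability is the treated-to-vehicle ratio of nuclei counts. Values are medians of duplicate plates.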
# [2] = compound: C[C@@H](N)c1ccc(C(=O)Nc2ccnc3[nH]ccc23)cc1 + N=C(N)NC(=N)NCCc1ccccc1 [Phenformin] (partner 250 µM)
# Outline: as §1
# [3] = compound: C[C@@H](N)c1ccc(C(=O)Nc2ccnc3[nH]ccc23)cc1 + Nc1ncn([C@H]2C[C@H](O)[C@@H](CO)O2)c(=O)n1 [Decitabine] (partner 2 µM)
# Outline: as §1
# Tanzisertib + Trametinib = compound: O[C@H]1CC[C@H](Nc2ncc3nc(Nc4c(F)cc(F)cc4F)n([C@H]4CCOC4)c3n2)CC1 [Tanzisertib] + CC(=O)Nc1cccc(-n2c(=O)n(C3CC3)c(=O)c3c(Nc4ccc(I)cc4F)n(C)c(=O)c(C)c32)c1 [Trametinib] (partner 0.02 µM)
# Outline: as §1
cell line,measurement,setting,value
UMC-11,relative viability,[1]; first compound 0.08 µM,0.959
same,relative viability,[1]; first compound 0.8 µM,1.19
same,relative viability,[1]; first compound 2.53 µM,1.05
same,relative viability,[1]; first compound 8 µM,1.14
same,relative viability,[2]; first compound 0.04 µM,0.268
same,relative viability,[2]; first compound 0.1265 µM,0.358
same,relative viability,[2]; first compound 0.4 µM,0.354
same,relative viability,[2]; first compound 1.265 µM,0.228
same,relative viability,[2]; first compound 4 µM,0.234
same,relative viability,[3]; first compound 0.1265 µM,0.608
same,relative viability,[3]; first compound 0.4 µM,0.604
same,relative viability,[3]; first compound 1.265 µM,0.481
same,relative viability,[3]; first compound 4 µM,0.324
same,relative viability,Tanzisertib + Trametinib; first compound 0.08 µM,0.735
same,relative viability,Tanzisertib + Trametinib; first compound 0.253 µM,0.695
same,relative viability,Tanzisertib + Trametinib; first compound 0.8 µM,0.759
same,relative viability,Tanzisertib + Trametinib; first compound 2.53 µM,0.719
same,relative viability,Tanzisertib + Trametinib; first compound 8 µM,0.764
